Measurements taken from patent US5880095A, “Cholesteryl ester transfer protein inhibitor peptides and prophylactic and therapeutic anti-arteriosclerosis agents” (LG Chemical Ltd., priority 1994, dated 1999).
Where two headings read alike, the source gives them in different places. One block for each sequence: values may come before it. No end group written: not given here.

What was measured:
[1] = target: T1, pure CETP separated from human blood plasma (Homo sapiens, UniProt P11597); experiment: Determination of CETP inhibitory activity (CE transfer from [3H]-HDL to LDL), pure CETP as CETP source; format: biochemical; details: for inhibition at 7 µM: final conc. 7 μM; for inhibition at 9 µM: final conc. 9 μM
T1 construct: Pure CETP was separated from human blood plasma in accordance with the method of Hesler et al; from tissue; host or cells: human blood plasma
T1 sequence (P11597 18-493): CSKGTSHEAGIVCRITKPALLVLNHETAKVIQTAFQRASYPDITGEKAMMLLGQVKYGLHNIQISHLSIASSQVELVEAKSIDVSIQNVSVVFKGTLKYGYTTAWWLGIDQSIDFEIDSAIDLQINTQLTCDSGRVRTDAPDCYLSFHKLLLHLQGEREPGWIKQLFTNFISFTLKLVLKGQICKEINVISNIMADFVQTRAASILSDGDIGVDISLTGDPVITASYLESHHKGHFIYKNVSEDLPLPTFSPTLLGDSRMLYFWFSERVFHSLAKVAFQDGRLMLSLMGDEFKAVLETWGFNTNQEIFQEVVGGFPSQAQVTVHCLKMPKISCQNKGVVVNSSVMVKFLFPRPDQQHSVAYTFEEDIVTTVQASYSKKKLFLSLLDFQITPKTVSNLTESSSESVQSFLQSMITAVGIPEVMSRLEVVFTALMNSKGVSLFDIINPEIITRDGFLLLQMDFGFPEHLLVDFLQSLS
Protocol: (§1) LDL and [^3 H]-cholesteryl oleate-labelled HDL were synthesized in accordance with the method of Morton et al.(see, J. Biol. Chem., 256, 11992-11995(1981)) and then separated using an ultracentrifuge(Beckman XL 70). LDL and [^3 H]-HDL, thus prepared, were used as a CE-receptor and a CE-donor, respectively.
(§2) Pure CETP was separated from human blood plasma in accordance with the method of Hesler et al.(see, J. Biol. Chem., 262, 2275-2282(1987)) and used as a CETP source.
(§3) 0.3 ml of LDL, 0.05 ml of [^3 H]-HDL and 0.05 ml of the CETP source, which were prepared above, and 0.05 ml of a CETP inhibitor were added into a 1.5 ml tube and reacted at 37° C. for 3 hours.
(§4) When the reaction was finished, LDL was precipitated in accordance with the method of Morton et al.(see, Biochim. Biophys. Acta, 663, 350-355(1981)). The amount of the isotope transferred to LDL was determined with a liquid scintillation counter(Packard Tricarb 1600 TR) using a part of the supernatant, and the activity of CETP was calculated therefrom.
(§5) The inhibitory activity of the CETP inhibitor was calculated from the CETP activities of the experimental group, in which the CETP inhibitor was added, and that of control group, in which no CETP inhibitor was added, as follows: [formula]

[2] = target: T2, CETP (human blood plasma as CETP source) (Homo sapiens, UniProt P11597); experiment: Determination of CETP inhibitory activity, human blood plasma itself as CETP source; format: biochemical
T2 construct: human blood plasma itself was used as the CETP source; from tissue; host or cells: human blood plasma (used as such)
T2 sequence (P11597 18-493): T1 sequence (P11597 18-493)
Protocol: as §1, §3, §4, §5
Further, the same procedures as in the Reference Example, except that human blood plasma itself was used as the CETP source, were repeated to determine CETP inhibitory activity of pure 3 kDa peptide.
CETP inhibitory activities of peptides P28, P10, P18, P24, P20 and P14 were determined in accordance with the method of Reference Example 1 using pure CETP or human blood plasma as a CETP source. To exclude possible nonspecific inhibition, a 2 kDa soluble peptide having an optional amino acid sequence was synthesized, and CETP inhibitory activity thereof was determined in a similar manner(control group).

[3] = tested on: Human fibroblast cell line(A431, ATCC CRL 1555); experiment: Toxicity test on cultured cells; format: cell-based; details: 10% (wt/vol) peptide, 72 hours, DMEM with 10% FBS, compared with control without peptide
Protocol: Human fibroblast cell line(A431, ATCC CRL 1555) was cultured on DMEM medium containing 10% fetal bovine serum(FBS), with the addition of 10% (wt/vol) Peptide P28, P18, P10, P24, P20 or P14, for 72 hours.

CETP = target: T3, CETP (Homo sapiens, UniProt P11597); experiment: CETP inhibitory activity of Peptide P28 according to the substrate (CE-receptor VLDL, LDL, HDL or LDLR); format: biochemical; details: final concentration 2 μM
T3 construct: Pure CETP was separated from human blood plasma in accordance with the method of Hesler et al; from tissue; host or cells: human blood plasma
T3 sequence (P11597 18-493): T1 sequence (P11597 18-493)
Protocol: as §1, §2, §3, §4, §5
In order to identify the inhibitory mechanism of Peptide P28 in blood, CETP inhibitory activity of Peptide P28 was determined in accordance with the method of Reference Example 1, using VLDL, LDL, HDL or re-synthesized LDL(LDLR) as a CE-receptor. LDLR was synthesized from LDL obtained in Reference Example 1 by the method of Morton et al.(see, J. Biol. Chem., 256, 11992-11995(1981)). The LDL was delipidated with chloroform and subjected to a gel chromatography to obtain ApoB100 protein. Phosphatidylcholine and cholesteryl oleate was thoroughly mixed, dried using nitrogen gas, and ApoB100 protein obtained above was added thereto. The mixture was reacted with stirring, dialyzed against tris buffer, and subjected to a gel chromatography to obtain LDLR.

[4] = final conc. of peptide 2 μM, CETP source pure CETP, synthesized peptides
[5] = final conc. of peptide 2 μM, CETP source human plasma, P28' and P13 produced in E. coli, read-out: Inhibitory Activity
[6] = alanine variants of P10, CETP source not given
[7] = conc. of inhibitor 2 μM, CETP source human plasma, peptides expressed in E. coli, read-out: Inhibitory Activity (Mean ± SD)

Sequence: EDTSPEAKMQ [Variant G]
inhibition at 2 µM ([1]; final conc. 2 μM, alanine variants of P10, CETP source not given, read-out: CETP inhibitory activity): -3%

Sequence: ADTSPEDKMQ [Variant A]
inhibition at 7 µM [1, 6]: -12%

Sequence: EATSPEDKMQ [Variant B]
inhibition at 7 µM [1, 6]: -15%

Sequence: EDTSPADKMQ [Variant F]
inhibition at 6 µM ([1]; final conc. 6 μM, alanine variants of P10, CETP source not given): 29%

Sequence: EDTSPEDKMA [Variant J]
inhibition at 7 µM [1, 6]: 41%

Sequence: EDTSAEDKMQ [Variant E]
inhibition at 9 µM [1, 6]: -6%

Sequence: EDASPEDKMQ [Variant C]
inhibition at 8 µM ([1]; final conc. 8 μM, alanine variants of P10, CETP source not given): -6%

Sequence: EDTSPEDAMQ [Variant H]
inhibition at 5 µM ([1]; final conc. 5 μM, alanine variants of P10, CETP source not given): 5%

Sequence: EDTSPEDKAQ [Variant I]
inhibition at 9 µM [1, 6]: 69%

Sequence: EDTAPEDKMQ [Variant D]
inhibition at 7 µM [1, 6]: -12%

Continued, in another order:

Inhibitory Activity (Mean ± S.D.) [1, 4]: 90 ± 3.5%
Inhibitory Activity (Mean ± S.D.) ([2]; final conc. of peptide 2 μM, CETP source human plasma, synthesized peptides): 40 ± 5.5%
Sequence: EDTSLLDKMQDYVKQATR [Peptide P18]
change in growth condition and morphology of cultured cells [3]: no change

inhibition at 2 µM ([1]; final conc. of peptide 2 μM, CETP source pure CETP, synthesized peptides, read-out: Inhibitory Activity (Mean ± S.D.)): 100 ± 2%
inhibition at 2 µM [2, 5]: 45 ± 2.3%
inhibition at 2 µM ([2]; final conc. of peptide 2 μM, CETP source human plasma, synthesized peptides, read-out: Inhibitory Activity (Mean ± S.D.)): 50 ± 4.5%
Sequence: EDTSPEDKMQ [Peptide P10]
change in growth condition and morphology of cultured cells [3]: no change

Inhibitory Activity (Mean ± S.D.) [1, 4]: 90 ± 1.5%
inhibition at 2 µM [2, 7]: 45 ± 2.2%
Sequence: EDTSPEDKMQDYVKQATRTA [Peptide P20]
change in growth condition and morphology of cultured cells [3]: no change

inhibition at 2 µM [2, 5]: 34 ± 2.9%
Sequence: SEAEDASLLSFMQ [Peptide P13]

inhibition at 0.001 µM ([1]; 1 nM, pure CETP separated from human blood plasma, read-out: CETP inhibitory activity (FIG. 4, curve A)): ~100%
inhibition at 0.001 µM ([2]; 1 nM, human blood plasma itself as CETP source, read-out: CETP inhibitory activity (FIG. 4, curve B)): ~50%
inhibition at 2 µM (CETP; CE-receptor LDL, read-out: inhibition of the transfer of CE from HDL to LDL): 50%
inhibition at 2 µM (CETP; CE-receptor VLDL, read-out: inhibition of the transfer of CE from HDL to VLDL): ~10%
inhibition at 2 µM (CETP; CE-receptor re-synthesized LDL (LDLR), read-out: inhibition of the transfer of CE from HDL to LDLR): 55%
Sequence: EDTSPEDKMQDYVKQATRTAQDALTSVK [Peptide P28]

Inhibitory Activity (Mean ± S.D.) [1, 4]: 100 ± 2.5%
inhibition at 2 µM [2, 7]: 50 ± 0.8%
Sequence: EDTSPEDKMQDYVKQATRTAQDAL [Peptide P24]
change in growth condition and morphology of cultured cells [3]: no change

Inhibitory Activity (Mean ± S.D.) [1, 4]: 50 ± 3.5%
inhibition at 2 µM [2, 7]: 15 ± 1.5%
Sequence: EDTSPEDKMQDYVK [Peptide P14]
change in growth condition and morphology of cultured cells [3]: no change
